Drawing on ChEMBL document CHEMBL3792319, “Synthesis and antitubercular activity of 1,2,4-trisubstitued piperazines” (Bioorg Med Chem Lett, 2016), this text covers MIC for 4 compounds.

Common to all, as to assay type: functional
In test [1] the test system is Mycobacterium tuberculosis. Briefly: Antitubercular activity against isoniazid-resistant Mycobacterium tuberculosis H37Rv isolate 1 by two-fold serial dilution method.
Test [2] relates to Mycobacterium tuberculosis. Briefly: Antitubercular activity against rifampicin-resistant Mycobacterium tuberculosis H37Rv isolate 1 by two-fold serial dilution method.
The subject of test [3] is Mycobacterium tuberculosis. Kind of test: Antitubercular activity against fluoroquinolone-resistant Mycobacterium tuberculosis H37Rv isolate 1 by two-fold serial dilution method.
In test [4] the test system is Mycobacterium tuberculosis. Briefly: Antitubercular activity against isoniazid-resistant Mycobacterium tuberculosis H37Rv isolate 2 by two-fold serial dilution method.
The subject of test [5] is Mycobacterium tuberculosis. Kind of test: Antitubercular activity against rifampicin-resistant Mycobacterium tuberculosis H37Rv isolate 2 by two-fold serial dilution method.

Converted amounts (≈) assume the structure as drawn.

Take `CNC[C@@H](Cc1ccccc1)N1CCN(CCC23CC4CC(CC(C4)C2)C3)[C@H](C(C)C)C1`: the MIC in test [1] was 1.8 µM (≈ 0.788 µg/mL); in test [2] it was 14 µM (≈ 6.13 µg/mL); in test [3], 14 µM (≈ 6.13 µg/mL).
`CNC[C@@H](Cc1ccccc1)N1CCN(CCC(c2ccccc2)c2ccccc2)CC1`: the MIC was 74 µM (≈ 31.6 µg/mL) in test [1]; 27 µM (≈ 11.5 µg/mL) in test [4]; 172 µM (≈ 73.6 µg/mL) in test [2]; 71 µM (≈ 30.4 µg/mL) in test [5]; 70 µM (≈ 29.9 µg/mL) in test [3].
The corresponding values for `CNC[C@@H](Cc1ccccc1)N1CCN(CCC23CC4CC(CC(C4)C2)C3)CC1` are 57 µM (≈ 22.6 µg/mL), 68 µM (≈ 26.9 µg/mL), 39 µM (≈ 15.4 µg/mL), 83 µM (≈ 32.8 µg/mL) and 38 µM (≈ 15 µg/mL).
For `CCC(C)[C@@H]1CN([C@@H](CNC)Cc2ccccc2)CCN1CCC12CC3CC(CC(C3)C1)C2` (stereo partly drawn), in that order: 38 µM (≈ 17.2 µg/mL), 41 µM (≈ 18.5 µg/mL), 37 µM (≈ 16.7 µg/mL), 48 µM (≈ 21.7 µg/mL) and 28 µM (≈ 12.6 µg/mL).

The MIC is the lowest concentration found to suppress growth. Low values mean a more susceptible organism, high ones a less susceptible organism.
